The source of these data is paper PMC9655245, “Dual Inhibitors of AChE and BACE-1 for Reducing Aβ in Alzheimer’s Disease: From In Silico to In Vivo” (International Journal of Molecular Sciences, 2022).

As a reminder, the IC50 is the concentration needed to halve the response being measured. Low values mean higher potency, high ones lower potency. What is called inhibition is the change of the read-out against control, counted positive when it falls.

The structures appear in SMILES notation.

Common to all, as to assay type: biochemical
The target of test [1] is T1, AChE (acetylcholinesterase) (Homo sapiens, UniProt P22303).
T1 construct: recombinant, produced in stably expressing CHO-K1 cell line
T1 sequence (P22303 32-614): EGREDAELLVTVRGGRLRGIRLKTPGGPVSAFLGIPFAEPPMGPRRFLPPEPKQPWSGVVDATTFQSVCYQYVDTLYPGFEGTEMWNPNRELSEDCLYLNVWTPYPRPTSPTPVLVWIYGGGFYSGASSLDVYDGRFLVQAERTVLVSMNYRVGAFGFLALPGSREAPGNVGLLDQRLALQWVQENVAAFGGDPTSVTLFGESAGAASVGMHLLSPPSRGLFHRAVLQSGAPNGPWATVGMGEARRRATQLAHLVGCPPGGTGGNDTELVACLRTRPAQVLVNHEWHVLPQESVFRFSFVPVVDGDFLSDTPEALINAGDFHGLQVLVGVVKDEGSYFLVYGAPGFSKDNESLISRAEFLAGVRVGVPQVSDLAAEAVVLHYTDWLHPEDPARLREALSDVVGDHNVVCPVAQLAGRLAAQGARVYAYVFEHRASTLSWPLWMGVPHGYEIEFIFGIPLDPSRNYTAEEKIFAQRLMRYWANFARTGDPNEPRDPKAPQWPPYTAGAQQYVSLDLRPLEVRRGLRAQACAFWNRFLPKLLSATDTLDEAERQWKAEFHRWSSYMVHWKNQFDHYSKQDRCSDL
Put plainly: Ellman assay, absorbance at […] nm, 7-point dose response.

The target in test [2] is T2, BACE-1 (β-secretase, beta-site APP cleaving enzyme 1) (Homo sapiens, UniProt P56817).
T2 construct: gene BACE1; commercial recombinant enzyme (R&D Systems 931-AS)
T2 sequence (P56817 46-457 limits assumed): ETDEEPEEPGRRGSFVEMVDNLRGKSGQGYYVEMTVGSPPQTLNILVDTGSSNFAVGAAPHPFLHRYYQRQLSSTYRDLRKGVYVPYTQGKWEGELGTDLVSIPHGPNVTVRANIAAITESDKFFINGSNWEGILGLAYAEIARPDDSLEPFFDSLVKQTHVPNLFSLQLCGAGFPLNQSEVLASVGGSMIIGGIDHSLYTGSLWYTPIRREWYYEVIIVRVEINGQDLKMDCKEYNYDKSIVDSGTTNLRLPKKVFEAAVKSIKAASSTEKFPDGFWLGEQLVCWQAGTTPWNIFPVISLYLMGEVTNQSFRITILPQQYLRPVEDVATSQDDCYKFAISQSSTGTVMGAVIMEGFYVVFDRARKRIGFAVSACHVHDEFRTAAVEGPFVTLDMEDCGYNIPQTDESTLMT
The test is described as follows: fluorogenic Mca/Dnp peptide cleavage, single point. The text has this: fluorogenic Mca/Dnp peptide cleavage, single point on BACE-1 (β-secretase, beta-site APP cleaving enzyme 1)

Test [3] concerns the target T2, BACE-1 (β-secretase, beta-site APP cleaving enzyme 1). Put plainly: fluorogenic Mca/Dnp peptide cleavage, 5-point dose response.
The target of test [4] is T1, AChE (acetylcholinesterase). Put plainly: Ellman assay, absorbance at […] nm, single point.

On to `Cc1ccc(Cn2c(=O)c(N3CCC(C(=O)NCCN4CCCCC4C)CC3)nc3ccccc32)cc1` (stereo not drawn) [compound 1, C700-2595], for which half-maximal inhibition in test [1] (IC50) required 8.2 µM. For the same compound, in test [2], the inhibition at 100 µM turned out to be 19%.
In the case of `CCn1c(=O)c(N2CCCC(C(=O)NC3CCN(Cc4ccccc4)CC3)C2)nc2ccccc21` (stereo not drawn) [compound 2, F681-0222], the figures for the IC50 in test [3] and in test [1] were 63 µM and 4.4 µM, respectively.
For `Cn1c(=O)c(N2CCCC(C(=O)NC3CCN(Cc4ccccc4)CC3)C2)nc2ccccc21` (stereo not drawn) [compound 3, F681-0412] the same measures were 55 µM and 6.7 µM.
In test [1], `CCN1CCCC1CNC(=O)CCc1nnc2n(CCc3ccccc3)c(=O)c3ccccc3n12` (stereo not drawn) [compound 4, C741-0335] yielded an IC50 of 9.7 µM. Further, the inhibition at 100 µM in test [2] is 6%.
In turn, `COc1cccc(N2CC(C(=O)Nc3ccccc3CN(C)C3CCCCC3)CC2=O)c1` (stereo not drawn) [compound 5, T6769894] showed a half-inhibitory concentration (IC50) in test [3] of 60 µM. Further, the inhibition at 10 µM in test [4] stood at 19%.
For `CCOc1cccc(C2CC(c3ccc(C)cc3)=NC3(CCN(C(C)=O)CC3)N2)c1O` (stereo not drawn) [compound 6, Z274-0419], in that order: 150 µM and -12%.
